Measured values: patent US20090226500A1, “SUTURES AND ANTI-SCARRING AGENTS” (Angiotech Pharmaceuticals, Inc, priority 2006, published 2009)
Read-outs that look alike come from different tables or passages of the source.

Legend:
[1] = system: MCP-1 production by THP-1 cells; assay: MCP-1 production by macrophages; type: cell-based, human; details: Homo sapiens; THP-1 cells stimulated with opsonized zymosan, 24 hours; read-out: IC50 MCP-1 production
Outline: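 THP-1 cells (1×10^6/well, 10% FCS) stimulated with 1 mg/ml serum-opsonized zymosan plus compound added from DMSO stocks at 1/1000, 24 h at 37° C. MCP-1 in supernatants quantified by sandwich ELISA (TMB read-out) against a recombinant human MCP-1 standard curve, triplicates, background-subtracted.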

[2] = system: IL-1β production by THP-1 cells; assay: IL-1β production by macrophages; type: cell-based, human; details: Homo sapiens, read-out: IC50 IL-1β production

IC50 ([2]; THP-1 cells stimulated with opsonized zymosan, 24 hours)	Compound	IC50 [1]	IC50 ([2]; THP-1, 24 h)
	CC1=C(O)C(=O)C=C2C1=CC=C1[C@@]2(C)CC[C@@]2(C)[C@@H]3C[C@](C)(C(=O)O)CC[C@]3(C)CC[C@]12C [celastrol]	421 nM	23 nM
2890 nM	COc1c(C)c2c(c(O)c1C/C=C(\C)CCC(=O)O)C(=O)OC2 [mycophenolic acid]	764 nM	
